16 molecules from US20250222146A1, “Radiopharmaceuticals Targeting Somatostatin Receptor 2 and Uses Thereof” (RayzeBio, Inc., priority 2023, published 2025) can be followed below.

Numbered stars: 1 amine (or outer) side, 2 acyl side, 3 side chain; on linkers, the order of the positions; unused ones are H or OH. Square brackets hold non-standard residues; d marks the D form. Peptide text beside a SMILES is read from it. * marks the point of attachment. DOTA(Lu)NH(CH2)6NHCOCH2 = O=C(CN1CCN2CCN3CCN(CC1)CC(=O)[O][Lu]([O]C(=O)C2)[O]C(=O)C3)NCCCCCCNC(=O)C*; dTrp(βS-Me) = C[C@@H](c1c[nH]c2ccccc12)[C@@H](N)C(=O)O; Phe(3-CONH2) = NC(=O)c1cccc(C[C@H](N)C(=O)O)c1; dTrp(6-F) = N[C@H](Cc1c[nH]c2cc(F)ccc12)C(=O)O; Phe(2-CONH2) = NC(=O)c1ccccc1C[C@H](N)C(=O)O; Tyr(3-F) = N[C@@H](Cc1ccc(O)c(F)c1)C(=O)O; X21 = CC(c1ccccc1)[C@H](N[*:1])C(=O)[*:2]; X22 = O=C([C@H](Cc1ccc(O)nc1)N[*:1])[*:2]; 3Pal = N[C@@H](Cc1cccnc1)C(=O)O; 4Pal = N[C@@H](Cc1ccncc1)C(=O)O; NMehCys = CN[C@@H](CCS)C(=O)O Bounds are passed on as bounds.

SSTR2, sequence (P30874 whole entry): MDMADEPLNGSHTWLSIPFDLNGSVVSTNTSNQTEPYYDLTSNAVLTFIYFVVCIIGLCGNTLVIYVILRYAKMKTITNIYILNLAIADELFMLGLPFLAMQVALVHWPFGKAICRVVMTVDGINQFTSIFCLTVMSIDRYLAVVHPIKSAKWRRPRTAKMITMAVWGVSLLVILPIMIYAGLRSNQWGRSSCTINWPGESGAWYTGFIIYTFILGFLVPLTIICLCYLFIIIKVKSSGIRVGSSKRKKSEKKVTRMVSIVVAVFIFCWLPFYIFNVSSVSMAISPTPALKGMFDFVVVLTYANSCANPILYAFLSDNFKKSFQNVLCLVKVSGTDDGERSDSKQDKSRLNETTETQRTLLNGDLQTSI

The first assay has as its target SSTR2 (Homo sapiens, UniProt P30874). Put plainly: SSTR binding affinity by radioligand binding competition assay ([125I]-Tyr11-Somatostatin, membrane extracts). The conditions noted are these: SSTR2 Ki, radioligand competition, [125I]-Tyr11-Somatostatin 0.1 nM, membrane extracts; Ki from IC50 by Cheng Prusoff. The protocol:
Macrocyclic peptides in this invention were tested for binding to SSTR protein by a radioligand binding competition assay. For radioligand binding assay, competition binding is performed in duplicate in the wells of a 96 well plate containing binding buffer (HEPES 25 mM pH 7.4, MgCl2 5 mM, CaCl2 1 mM, BSA 0.5%, Saponine 10 μg/ml)), membrane extracts (0.6 μg protein/well), radiotracer ([125I]-Tyr11-Somatostatin, Perkin Elmer NEX389) and test compound. Nonspecific binding is determined by co-incubation with 200-fold excess of cold competitor (SST28). The samples are incubated in a final volume of 0.1 ml for 60 min at room temperature and then filtered over UniFilter-96 GF/C (Revvity 6055690) filter plates. Filters are washed six times with 0.5 ml of ice-cold washing buffer (HEPES 25 mM pH 7.4, MgCl2 5 mM, CaCl2 1 mM) and 50 μl of Microscint 20 (Packard) are added in each well. The plates are incubated 15 min on an orbital shaker and then counted with a TopCount™ for 1 min/well. For IC50 to Ki determination, the Cheng Prusoff equation is used: Ki=IC50/(1+ [tracer]/Kd). [Tracer] is 0.1 nM as mentioned above.
By Ki is commonly meant a dissociation constant, usually derived from enzyme kinetics or from competition with a known ligand. The molecule `C[C@@H](O)[C@@H]1NC(=O)[C@H](CCCCN)NC(=O)[C@@H](Cc2c[nH]c3ccccc23)NC(=O)[C@H](Cc2ccc(O)cc2)NC(=O)[C@H](CCCCNC(=O)CN2CCN3CCN4CCN(CC2)CC(=O)[O][Lu]([O]C(=O)C3)[O]C(=O)C4)N(C)C(=O)[C@H](Cc2ccccc2)NC1=O` [RB-0003292] returned a Ki below 1 nM.
In turn, `C[C@@H](O)[C@@H]1NC(=O)[C@H](CCCCN)NC(=O)[C@@H](Cc2c[nH]c3ccccc23)NC(=O)[C@H](Cc2ccc(O)cc2)NC(=O)[C@H](CCCCNC(=O)COCCOCCNC(=O)CN2CCN3CCN4CCN(CC2)CC(=O)[O][Lu]([O]C(=O)C3)[O]C(=O)C4)N(C)C(=O)[C@H](Cc2ccccc2)NC1=O` [RB-0003294] yielded a Ki of 1 to 3.33 nM.
In turn, `C[C@@H](O)[C@@H]1NC(=O)[C@H](CCCCN)NC(=O)[C@@H](Cc2c[nH]c3ccccc23)NC(=O)[C@H](Cc2ccc(O)cc2)NC(=O)[C@H](CCCCNC(=O)CCCCCCCNC(=O)CN2CCN3CCN4CCN(CC2)CC(=O)[O][Lu]([O]C(=O)C3)[O]C(=O)C4)N(C)C(=O)[C@H](Cc2ccccc2)NC1=O` [RB-0003296] had a Ki of 1 to 3.33 nM.
Same read-out and setting: then `C[C@@H](O)[C@@H]1NC(=O)[C@H](CCCCN)NC(=O)[C@@H](Cc2c[nH]c3ccccc23)NC(=O)[C@H](Cc2ccc(O)cc2)NC(=O)[C@H](CCCCNC(=O)CCCCC[C@H](NC(=O)CN2CCN3CCN4CCN(CC2)CC(=O)[O][Lu]([O]C(=O)C3)[O]C(=O)C4)C(=O)O)N(C)C(=O)[C@H](Cc2ccccc2)NC1=O` [RB-0003298], with 3.33 to 10 nM.

Staying with this assay, now noted: radioligand competition, [125I]-Tyr11-Somatostatin 0.1 nM, membrane extracts; Ki from IC50 by Cheng Prusoff; read-out: SSTR2 Ki.
With `C[C@@H](O)[C@@H]1NC(=O)[C@H](CCCCN)NC(=O)[C@@H](Cc2c[nH]c3ccccc23)NC(=O)[C@H](Cc2ccc(O)cc2)NC(=O)[C@H](CCSCC(=O)NCCCCCCNC(=O)CN2CCN3CCN4CCN(CC2)CC(=O)[O][Lu]([O]C(=O)C3)[O]C(=O)C4)N(C)C(=O)[C@H](Cc2ccc(O)nc2)NC1=O` [RB-0003279] (cyclo(KT[X22][NMehCys](DOTA(Lu)NH(CH2)6NHCOCH2)Y[dW])), the Ki lay within 3.33 to 10 nM.
Still for that read-out and setting: then `C[C@@H](O)[C@@H]1NC(=O)[C@H](CCCCN)NC(=O)[C@@H](Cc2c[nH]c3ccccc23)NC(=O)[C@H](Cc2ccc(O)c(F)c2)NC(=O)[C@H](CCSCC(=O)NCCCCCCNC(=O)CN2CCN3CCN4CCN(CC2)CC(=O)[O][Lu]([O]C(=O)C3)[O]C(=O)C4)N(C)C(=O)[C@H](Cc2ccccc2)NC1=O` [RB-0003280] (cyclo(F[NMehCys](DOTA(Lu)NH(CH2)6NHCOCH2)[Tyr(3-F)][dW]KT)), with below 1 nM.
With `CC(c1ccccc1)[C@@H]1NC(=O)[C@H]([C@@H](C)O)NC(=O)[C@H](CCCCN)NC(=O)[C@@H](Cc2c[nH]c3ccccc23)NC(=O)[C@H](Cc2ccc(O)cc2)NC(=O)[C@H](CCSCC(=O)NCCCCCCNC(=O)CN2CCN3CCN4CCN(CC2)CC(=O)[O][Lu]([O]C(=O)C3)[O]C(=O)C4)N(C)C1=O` (stereo partly shown) [RB-0003281] (cyclo(KT[X21][NMehCys](DOTA(Lu)NH(CH2)6NHCOCH2)Y[dW])), the Ki fell in the range of 3.33 to 10 nM.
On to `C[C@@H](O)[C@@H]1NC(=O)[C@H](CCCCN)NC(=O)[C@@H](Cc2c[nH]c3ccccc23)NC(=O)[C@H](Cc2cccc(C(N)=O)c2)NC(=O)[C@H](CCSCC(=O)NCCCCCCNC(=O)CN2CCN3CCN4CCN(CC2)CC(=O)[O][Lu]([O]C(=O)C3)[O]C(=O)C4)N(C)C(=O)[C@H](Cc2ccccc2)NC1=O` [RB-0003302] (cyclo(F[NMehCys](DOTA(Lu)NH(CH2)6NHCOCH2)[Phe(3-CONH2)][dW]KT)), for which the Ki lay in the range of 3.33 to 10 nM.
Same read-out and setting: then `C[C@@H](O)[C@@H]1NC(=O)[C@H](CCCCN)NC(=O)[C@@H](Cc2c[nH]c3ccccc23)NC(=O)[C@H](Cc2ccccc2C(N)=O)NC(=O)[C@H](CCSCC(=O)NCCCCCCNC(=O)CN2CCN3CCN4CCN(CC2)CC(=O)[O][Lu]([O]C(=O)C3)[O]C(=O)C4)N(C)C(=O)[C@H](Cc2ccccc2)NC1=O` [RB-0003304] (cyclo(F[NMehCys](DOTA(Lu)NH(CH2)6NHCOCH2)[Phe(2-CONH2)][dW]KT)), with 3.33 to 10 nM.
Same read-out and setting: then `C[C@@H](O)[C@@H]1NC(=O)[C@H](CCCCN)NC(=O)[C@@H](Cc2c[nH]c3ccccc23)NC(=O)[C@H](Cc2ccc(O)cc2)NC(=O)[C@H](CCSCC(=O)NCCCCCCNC(=O)CN2CCN3CCN4CCN(CC2)CC(=O)[O][Lu]([O]C(=O)C3)[O]C(=O)C4)N(C)C(=O)[C@H](Cc2cccc(C(N)=O)c2)NC1=O` [RB-0003306] (cyclo(KT[Phe(3-CONH2)][NMehCys](DOTA(Lu)NH(CH2)6NHCOCH2)Y[dW])), with 1 to 3.33 nM; and `C[C@@H](O)[C@@H]1NC(=O)[C@H](CCCCN)NC(=O)[C@@H](Cc2c[nH]c3cc(F)ccc23)NC(=O)[C@H](Cc2ccc(O)cc2)NC(=O)[C@H](CCSCC(=O)NCCCCCCNC(=O)CN2CCN3CCN4CCN(CC2)CC(=O)[O][Lu]([O]C(=O)C3)[O]C(=O)C4)N(C)C(=O)[C@H](Cc2ccccc2)NC1=O` [RB-0003309] (cyclo(F[NMehCys](DOTA(Lu)NH(CH2)6NHCOCH2)Y[dTrp(6-F)]KT)), with below 1 nM.
In the case of `C[C@H](O)[C@@H]1NC(=O)[C@H](CCCCN)NC(=O)[C@@H](Cc2c[nH]c3ccccc23)NC(=O)[C@H](Cc2ccc(O)cc2)NC(=O)[C@H](CCSCC(=O)NCCOCCOCCOCCNC(=O)CN2CCN3CCN4CCN(CC2)CC(=O)[O][Lu]([O]C(=O)C3)[O]C(=O)C4)N(C)C(=O)[C@H](Cc2ccccc2)NC1=O` [RB-0003357], the Ki was below 1 nM.
On the same count and under the same terms, then `C[C@@H](O)[C@@H]1NC(=O)[C@H](CCCCN)NC(=O)[C@@H](Cc2c[nH]c3ccccc23)NC(=O)[C@H](Cc2ccc(O)cc2)NC(=O)[C@H](CCSCCC(=O)NCCCCCCNC(=O)CN2CCN3CCN4CCN(CC2)CC(=O)[O][Lu]([O]C(=O)C3)[O]C(=O)C4)N(C)C(=O)[C@H](Cc2ccccc2)NC1=O` [RB-0003374], with below 1 nM; and `C[C@@H](O)[C@@H]1NC(=O)[C@H](CCCCN)NC(=O)[C@@H](Cc2c[nH]c3ccccc23)NC(=O)[C@H](Cc2ccc(O)cc2)NC(=O)[C@H](CCSCCC(=O)NCCCCC[C@H](NC(=O)CN2CCN3CCN4CCN(CC2)CC(=O)[O][Lu]([O]C(=O)C3)[O]C(=O)C4)C(=O)O)N(C)C(=O)[C@H](Cc2ccccc2)NC1=O` [RB-0003375], with 1 to 3.33 nM; and `C[C@@H](O)[C@@H]1NC(=O)[C@H](CCCCN)NC(=O)[C@@H]([C@@H](C)c2c[nH]c3ccccc23)NC(=O)[C@H](Cc2ccncc2)NC(=O)[C@H](CCSCC(=O)NCCCCCCNC(=O)CN2CCN3CCN4CCN(CC2)CC(=O)[O][Lu]([O]C(=O)C3)[O]C(=O)C4)N(C)C(=O)[C@H](Cc2ccccc2)NC1=O` [RB-0003381] (cyclo([4Pal][dTrp(βS-Me)]KTF[NMehCys](DOTA(Lu)NH(CH2)6NHCOCH2))), with below 1 nM.
As to `C[C@@H](O)[C@@H]1NC(=O)[C@H](CCCCN)NC(=O)[C@@H]([C@@H](C)c2c[nH]c3ccccc23)NC(=O)[C@H](Cc2cccnc2)NC(=O)[C@H](CCSCC(=O)NCCCCCCNC(=O)CN2CCN3CCN4CCN(CC2)CC(=O)[O][Lu]([O]C(=O)C3)[O]C(=O)C4)N(C)C(=O)[C@H](Cc2ccccc2)NC1=O` [RB-0003382] (cyclo([3Pal][dTrp(βS-Me)]KTF[NMehCys](DOTA(Lu)NH(CH2)6NHCOCH2))), the Ki was below 1 nM.
